Where only a bound is given, the exact number is not on record here.

For data set [1] the following is noted: because of poor gastrointestinal absorption; cited from earlier work.
Data set [2] can be described thus: Pharmacokinetics of JHG components in pulmonary fibrosis (PF) model rats after intragastric administration of JHGs (plasma, Orbitrap Fusion MS). In kind it is in vivo, Sprague Dawley (SD) rats. The protocol: (§1) Healthy male Sprague Dawley (SD) rats of SPF grade (240 ± 20 g) were purchased from Sipeifu (Beijing, China) Biotechnology Co., Ltd. (Beijing, China), Certificate of Conformity No.: SCYK (Beijing, China) 2019-0015, Animal Quality Certificate No.: 110324220102348616. They were housed in the Animal Center of Henan University of Traditional Chinese Medicine, which passed the ethical audit, ethics number: DWLL202208003, breeding Co. 24 °C, relative humidity 50 ± 2%. The animals fasted for 12 h before the experiment and drank water freely. All feeding and experimental studies on experimental animals were in accordance with the regulations on the Management of Experimental Animals in Henan Province.
The PF model in rats was replicated by reference to the conclusion tracheal intubation method in the literature. After the rats were anesthetized, bleomycin (BLM) (5 mg/kg) was used as an induction agent and followed the tracheal intubation method. BLM solution was aspirated with a 1 mL syringe and injected into the indwelling syringe. A total of 0.3 mL of air was rapidly pushed into the syringe, the rats were immediately stroked upright so that the BLM solution was evenly distributed in both lungs. BLM was given on day 0 for modeling, then gavage was taken after day 28, with fasting without water for 12 h before sampling. The histopathological examination was performed to verify the construction of the PF model. The rats were anesthetized by the abdominal cavity, then the lung tissues were violently shocked by opening the chest, and the right lower lobe of the lung was taken and fixed in 4% formaldehyde solution, then dehydrated by sucrose gradient, paraffin-embedded, and sectioned. H&E and Masson staining were performed to observe the degree of alveolitis of lung tissue and the degree of pulmonary fibrosis, respectively. The inflammation and fibrosis of lung tissues was observed under the light microscope.
(§2) Twenty-four healthy male SD rats or PF model rats, weighing 240 ± 20 g, fasted for 12 h before the experiment and drank water freely. Both kinds of rats were randomly divided into four groups. Blank group: equal dose of water by intragastric, low dose; administration group: rats were given the equivalent human dose of JHGs by intragastric, i.e., 10.8 g of raw drug/kg/d (5.70 g/kg/d); medium-dose administration group: 2 times the human equivalent dose of JHGs by intragastric, i.e., 21.6 g of raw drug/kg/d (11.41 g/kg/d); high-dose administration group: 4 times the human equivalent dose of JHG, i.e., 43.2 g of raw drug/kg/d (22.81 g/kg/d). Blood was collected from the tail vein before and 0.083, 0.25, 0.5, 0.75, 1, 1.5, 2, 3, 4, 6, 8, 12, 18, and 24 h after dosing, respectively. A total of 0.5 mL was placed in a heparin sodium centrifuge tube. Whole blood was left for 30 min and then centrifuged in a low-temperature freezing centrifuge (4 °C, 3000 r/min) for 15 min. The upper layer of plasma was collected and stored in a refrigerator at −80 °C.
(§3) We added 50 μL of internal standard solution and 800 μL of methanol, shook for 15 min, then centrifuged at 12,000 r/min for 10 min, took the supernatant, dried in a centrifuge concentrator, added 50 μL of the initial mobile phase to the residue, dissolved, centrifuged, then separated the upper layer of the solution used as the test solution. A total of 5 μL test solution was taken into the sample for analysis. For each compound with a certain dosage, the same procedure is repeated six times in parallel. The concentration in plasma was calculated by the internal standard method.
Accucore C18 (100 mm × 2.1 mm, 2.6 μm) column at 25 °C, the mobile phase was methanol (A)-0.1% formic acid aqueous solution (B). The gradient elution program was 0–4 min (65% B-40% B), 4–5 min (40% B-40% B), 5–6 min (40% B-28% B), and 6–7 min (28% B-19% B), 7–7.5 min (19% B-10% B), 7.5–11 min (10% B-0% B), the flow rate was 0.2 mL/min, and the injection volume was 5 μL. […]

Data set [3] is described as follows: Pharmacokinetics of JHG components in control rats after intragastric administration of JHGs (plasma, Orbitrap Fusion MS). The note with it: low, medium, high doses of JHGs. In kind it is in vivo, Sprague Dawley (SD) rats. The protocol: as §1, §2, §3
Accucore C18 (100 mm × 2.1 mm, 2.6 μm) column at 25 °C, the mobile phase was methanol (A)-0.1% formic acid aqueous solution (B). The gradient elution program was 0–4 min (65% B-40% B), 4–5 min (40% B-40% B), 5–6 min (40% B-28% B), and 6–7 min (28% B-19% B), 7–7.5 min (19% B-10% B), 7.5–11 min (10% B-0% B), the flow rate was 0.2 mL/min, and the injection volume was 5 μL.
The ion source was an electrospray ionization source (ESI). Nitrogen acted as a carrier gas. The sheath gas pressure was 35 Arb. The auxiliary gas pressure was 7 Arb. The spray voltage was 3.50 kv(+), 2.50 kv(-). The ion transport tube temperature was regulated at 300 °C. Gasification temperature was 275 °C. The resolution was 50,000. The scanning mode was set as SIM mode. The optimized parameters obtained are in Table 5.
Under the established Orbitrap Fusion MS method, the pharmacokinetics of JHG in rats were studied to investigate the dynamic changes of the active components in rats. The pharmacokinetic parameters of each component in each dosing group were calculated by […] model analysis using Kinetica 5.1 (Innaphase, Waltham, MA, USA) pharmacokinetic analysis software. The pharmacotemporal curves were plotted by the plotting software. SPSS 19.0 (IBM, Armonk, NY, USA) was used to analyze all the parameters. Independent sample tests were performed after natural logarithmic transformation for AUC0–t, Cmax. The nonparametric Mann–Whitney test was applied for Tmax, t½, and MRT0–t. p < 0.05 was considered statistically significant.

Broadly, the Tmax is the time at which the peak concentration occurs. As to `CC(C)=CCC[C@](C)(O[C@@H]1O[C@H](CO[C@@H]2OC[C@H](O)[C@H](O)[C@H]2O)[C@@H](O)[C@H](O)[C@H]1O)[C@H]1CC[C@]2(C)[C@@H]1[C@H](O)C[C@@H]1[C@@]3(C)CC[C@H](O[C@@H]4O[C@H](CO)[C@@H](O)[C@H](O)[C@H]4O[C@@H]4O[C@H](CO)[C@@H](O)[C@H](O)[C@H]4O)C(C)(C)[C@@H]3CC[C@]12C` [Ginsenoside Rb2], the “bioavailability, oral administration” value in data set [1] is “low”. Further, the “pharmacokinetic process (versus dosage)” value in data set [2] (PF model rats, low, medium, high doses of JHGs) is “linear pharmacokinetic process”. Further, in data set [2] (PF model vs control rats), the “Tmax, PF model group compared with the control group” value is “slightly increased” and the “reduction of Cmax in PF model group relative to control” value is on record as “about 1/3”. Also, the “Cmax, PF model group compared with the control group” value in data set [2] (PF model vs control rats, medium dose selected for comparison) was “significantly decreased”. The “AUCs, PF model group compared with the control group” value in data set [2] (PF model vs control rats, p < 0.05) is given as “significantly decreased”. Moreover, the Tmax in data set [2] (male, Sprague-Dawley, rat, plasma, po, PF model rats, after administration of JHGs, read-out: Tmax of all dosages) is not above 2 h. In addition, the “pharmacokinetic process (Cmax and AUCs versus dosage)” value in data set [3] is reported as “linear pharmacokinetic process”.

These data come from paper PMC10534582, “A Pharmacokinetic Study of Sixteen Major Bioactive Components of Jinshui-Huanxian Granules in Pulmonary Fibrosis Model and Control Rats Using Orbitrap Fusion Mass Spectrometry” (Molecules, 2023).
